The target in test [1] is Tyrosine-protein kinase ABL1 (Homo sapiens) (UniProt P00519). As to the kind of experiment: Enzymatic radiometric [Km ATP] KinaseProfiler LeadHunter assay, kinase: Abl, catalogue number: 14-529KP The assay has been performed by Eurofins Discovery. The conditions noted are these: ATP concentration 45.0 uM, Test compound concentration 10.0 uM.
Test [2] has as its target 5'-AMP-activated protein kinase catalytic subunit alpha-1 (Homo sapiens) (UniProt Q13131). Kind of test: Enzymatic radiometric [Km ATP] KinaseProfiler LeadHunter assay, kinase: AMPK-alpha1, catalogue number: 14-840KP The assay has been performed by Eurofins Discovery. The conditions noted are these: ATP concentration 45.0 uM, Test compound concentration 10.0 uM.
Test [3] addresses Cyclin-dependent kinase 1/cyclin B (Homo sapiens) (UniProt P06493+P14635+Q8WWL7+O95067). As to the kind of experiment: Enzymatic radiometric [Km ATP] KinaseProfiler LeadHunter assay, kinase: CDK1/cyclinB, catalogue number: 14-450KP The assay has been performed by Eurofins Discovery. The class given is protein-complex assay. Conditions: ATP concentration 45.0 uM, Test compound concentration 10.0 uM.

The target of test [4] is Cyclin-dependent kinase 2/cyclin A (Homo sapiens) (UniProt P24941+P20248+P78396). Kind of test: Enzymatic radiometric [Km ATP] KinaseProfiler LeadHunter assay, kinase: CDK2/cyclinA, catalogue number: 14-448KP The assay has been performed by Eurofins Discovery. The class given is protein-complex assay. Conditions: ATP concentration 45.0 uM, Test compound concentration 10.0 uM.

Test [5] has as its target CDK7/Cyclin H/MNAT1 (Homo sapiens) (UniProt P51946+P50613+P51948). Kind of test: Enzymatic radiometric [Km ATP] KinaseProfiler LeadHunter assay, kinase: CDK7/cyclinH/MAT1, catalogue number: 14-476KP The assay has been performed by Eurofins Discovery. The test is classed as protein-complex assay. The conditions noted are these: ATP concentration 90.0 uM, Test compound concentration 10.0 uM.

The target in test [6] is Casein kinase I isoform gamma-1 (Homo sapiens) (UniProt Q9HCP0). As to the kind of experiment: Enzymatic radiometric [Km ATP] KinaseProfiler LeadHunter assay, kinase: CK1-gamma1, catalogue number: 14-711KP The assay has been performed by Eurofins Discovery. The conditions noted are these: ATP concentration 15.0 uM, Test compound concentration 10.0 uM.
In test [7] the target is T1, Eukaryotic elongation factor 2 kinase (Homo sapiens) (UniProt O00418).
T1 sequence (whole entry): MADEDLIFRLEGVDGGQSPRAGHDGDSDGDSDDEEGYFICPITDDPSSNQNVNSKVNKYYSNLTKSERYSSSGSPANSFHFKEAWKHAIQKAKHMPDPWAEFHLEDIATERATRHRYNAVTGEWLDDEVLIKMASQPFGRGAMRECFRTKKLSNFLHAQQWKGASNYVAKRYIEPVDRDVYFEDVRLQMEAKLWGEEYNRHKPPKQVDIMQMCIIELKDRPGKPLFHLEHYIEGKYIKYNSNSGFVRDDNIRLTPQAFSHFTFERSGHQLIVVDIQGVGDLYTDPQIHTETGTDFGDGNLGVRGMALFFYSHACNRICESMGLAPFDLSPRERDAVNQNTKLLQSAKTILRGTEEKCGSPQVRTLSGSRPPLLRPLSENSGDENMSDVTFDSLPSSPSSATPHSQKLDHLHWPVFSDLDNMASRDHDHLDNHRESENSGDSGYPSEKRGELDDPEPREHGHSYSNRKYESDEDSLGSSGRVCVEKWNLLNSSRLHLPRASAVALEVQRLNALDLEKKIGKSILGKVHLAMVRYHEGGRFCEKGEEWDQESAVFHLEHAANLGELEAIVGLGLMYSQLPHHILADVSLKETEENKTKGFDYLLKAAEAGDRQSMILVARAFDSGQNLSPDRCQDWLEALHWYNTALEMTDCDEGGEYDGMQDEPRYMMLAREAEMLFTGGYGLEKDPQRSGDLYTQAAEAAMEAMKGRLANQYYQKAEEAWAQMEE
Kind of test: Enzymatic radiometric [Km ATP] KinaseProfiler LeadHunter assay, kinase: eEF-2K, catalogue number: 14-654KP The assay has been performed by Eurofins Discovery. The conditions noted are these: ATP concentration 15.0 uM, Test compound concentration 10.0 uM.

Test [8] deals with Tyrosine-protein kinase Fyn (Homo sapiens) (UniProt P06241). As to the kind of experiment: Enzymatic radiometric [Km ATP] KinaseProfiler LeadHunter assay, kinase: Fyn, catalogue number: 14-441KP The assay has been performed by Eurofins Discovery. Conditions: ATP concentration 70.0 uM, Test compound concentration 10.0 uM.
For test [9], the target named is Glycogen synthase kinase-3 beta (Homo sapiens) (UniProt P49841). Kind of test: Enzymatic radiometric [Km ATP] KinaseProfiler LeadHunter assay, kinase: GSK3-beta, catalogue number: 14-306KP The assay has been performed by Eurofins Discovery. Conditions: ATP concentration 15.0 uM, Test compound concentration 10.0 uM.
Test [10] addresses Tyrosine-protein kinase JAK2 (Homo sapiens) (UniProt O60674). Kind of test: Enzymatic radiometric [Km ATP] KinaseProfiler LeadHunter assay, kinase: JAK2, catalogue number: 14-640KP The assay has been performed by Eurofins Discovery. Conditions: ATP concentration 45.0 uM, Test compound concentration 10.0 uM.
Test [11] deals with Ribosomal protein S6 kinase alpha-4 (Homo sapiens) (UniProt O75676). As to the kind of experiment: Enzymatic radiometric [Km ATP] KinaseProfiler LeadHunter assay, kinase: MSK2, catalogue number: 14-616KP The assay has been performed by Eurofins Discovery. The conditions noted are these: ATP concentration 45.0 uM, Test compound concentration 10.0 uM.
Test [12] addresses Serine/threonine-protein kinase mTOR (Homo sapiens) (UniProt P42345). Kind of test: Enzymatic radiometric [Km ATP] KinaseProfiler LeadHunter assay, kinase: mTOR, catalogue number: 14-769KP The assay has been performed by Eurofins Discovery. Conditions: ATP concentration 70.0 uM, Test compound concentration 10.0 uM.
The target in test [13] is Ribosomal protein S6 kinase beta-1 (Homo sapiens) (UniProt P23443). As to the kind of experiment: Enzymatic radiometric [Km ATP] KinaseProfiler LeadHunter assay, kinase: p70S6K, catalogue number: 14-486KP The assay has been performed by Eurofins Discovery. The conditions noted are these: ATP concentration 15.0 uM, Test compound concentration 10.0 uM.
Test [14] concerns the target Platelet-derived growth factor receptor beta (Homo sapiens) (UniProt P09619). As to the kind of experiment: Enzymatic radiometric [Km ATP] KinaseProfiler LeadHunter assay, kinase: PDGFR-beta, catalogue number: 14-463KP The assay has been performed by Eurofins Discovery. The conditions noted are these: ATP concentration 200.0 uM, Test compound concentration 10.0 uM.

In test [15] the target is RAC-alpha serine/threonine-protein kinase (Homo sapiens) (UniProt P31749). Kind of test: Enzymatic radiometric [Km ATP] KinaseProfiler LeadHunter assay, kinase: PKB-alpha, catalogue number: 14-276KP The assay has been performed by Eurofins Discovery. Conditions: ATP concentration 155.0 uM, Test compound concentration 10.0 uM.
Test [16] concerns the target Rho-associated protein kinase 1 (Homo sapiens) (UniProt Q13464). Kind of test: Enzymatic radiometric [Km ATP] KinaseProfiler LeadHunter assay, kinase: ROCK-I, catalogue number: 14-601KP The assay has been performed by Eurofins Discovery. Conditions: ATP concentration 70.0 uM, Test compound concentration 10.0 uM.
In test [17] the target is Phosphatidylinositol 4,5-bisphosphate 3-kinase catalytic subunit gamma isoform (Homo sapiens) (UniProt P48736). As to the kind of experiment: Enzymatic radiometric [Km ATP] KinaseProfiler LeadHunter assay, kinase: PI3 Kinase (p120-gamma), catalogue number: 14-558KP The assay has been performed by Eurofins Discovery. Conditions: ATP concentration 100.0 uM, Test compound concentration 10.0 uM.

In test [18] the target is PI3-kinase p110-alpha/p85-alpha (Homo sapiens) (UniProt P27986+P42336). Kind of test: Enzymatic radiometric [Km ATP] KinaseProfiler LeadHunter assay, kinase: PI3 Kinase (p110-alpha/p85-alpha), catalogue number: 14-602KP The assay has been performed by Eurofins Discovery. The conditions noted are these: ATP concentration 200.0 uM, Test compound concentration 10.0 uM. The test is classed as protein-complex assay.

The text below walks through data of ChEMBL document CHEMBL5442741, “ASAP - In vitro kinase profile” (2024).

Chain of RAC-alpha serine/threonine-protein kinase (Homo sapiens) (P31749 whole entry): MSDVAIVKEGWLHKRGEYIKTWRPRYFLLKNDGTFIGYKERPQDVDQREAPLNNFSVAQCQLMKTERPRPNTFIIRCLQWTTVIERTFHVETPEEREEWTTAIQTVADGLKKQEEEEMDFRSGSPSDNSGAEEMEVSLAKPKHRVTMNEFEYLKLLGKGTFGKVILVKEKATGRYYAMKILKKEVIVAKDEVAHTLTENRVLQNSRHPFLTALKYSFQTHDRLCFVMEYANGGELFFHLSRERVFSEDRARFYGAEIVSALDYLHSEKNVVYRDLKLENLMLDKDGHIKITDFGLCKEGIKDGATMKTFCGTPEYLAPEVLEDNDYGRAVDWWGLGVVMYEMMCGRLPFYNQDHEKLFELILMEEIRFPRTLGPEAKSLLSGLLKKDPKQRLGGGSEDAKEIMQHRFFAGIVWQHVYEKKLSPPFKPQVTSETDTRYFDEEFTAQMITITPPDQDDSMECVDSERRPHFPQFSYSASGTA
Chain of Tyrosine-protein kinase JAK2 (Homo sapiens) (O60674 whole entry): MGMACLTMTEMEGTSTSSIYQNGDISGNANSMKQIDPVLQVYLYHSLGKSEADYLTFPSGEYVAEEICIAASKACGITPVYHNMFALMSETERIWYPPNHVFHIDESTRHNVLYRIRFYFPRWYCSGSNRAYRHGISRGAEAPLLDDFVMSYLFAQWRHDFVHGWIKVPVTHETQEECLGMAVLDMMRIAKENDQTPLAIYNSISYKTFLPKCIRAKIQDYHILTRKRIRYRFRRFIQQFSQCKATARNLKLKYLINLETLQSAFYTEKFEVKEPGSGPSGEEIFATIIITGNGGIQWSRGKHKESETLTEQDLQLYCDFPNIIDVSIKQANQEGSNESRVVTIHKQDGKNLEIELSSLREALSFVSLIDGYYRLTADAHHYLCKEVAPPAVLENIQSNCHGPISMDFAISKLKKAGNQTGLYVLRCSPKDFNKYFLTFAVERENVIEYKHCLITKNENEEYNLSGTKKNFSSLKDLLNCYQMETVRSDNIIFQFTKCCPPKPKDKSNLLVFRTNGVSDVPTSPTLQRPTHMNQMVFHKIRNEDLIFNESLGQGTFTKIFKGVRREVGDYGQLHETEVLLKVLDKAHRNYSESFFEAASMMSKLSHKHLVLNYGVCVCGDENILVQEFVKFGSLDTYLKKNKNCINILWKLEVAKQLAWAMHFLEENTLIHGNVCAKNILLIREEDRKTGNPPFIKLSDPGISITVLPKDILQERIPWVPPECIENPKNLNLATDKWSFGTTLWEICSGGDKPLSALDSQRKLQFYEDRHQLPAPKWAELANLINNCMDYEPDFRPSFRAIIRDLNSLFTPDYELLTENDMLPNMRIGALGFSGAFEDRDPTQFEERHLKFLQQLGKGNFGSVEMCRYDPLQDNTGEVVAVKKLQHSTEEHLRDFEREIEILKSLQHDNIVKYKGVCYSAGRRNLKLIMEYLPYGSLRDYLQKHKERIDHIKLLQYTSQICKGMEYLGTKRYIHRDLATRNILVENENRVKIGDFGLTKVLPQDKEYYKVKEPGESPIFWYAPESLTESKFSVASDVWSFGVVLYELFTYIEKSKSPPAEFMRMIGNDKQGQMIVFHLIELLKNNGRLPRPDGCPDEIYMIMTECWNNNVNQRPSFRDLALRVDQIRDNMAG
Chain of Tyrosine-protein kinase Fyn (Homo sapiens) (P06241 2-537 limits assumed): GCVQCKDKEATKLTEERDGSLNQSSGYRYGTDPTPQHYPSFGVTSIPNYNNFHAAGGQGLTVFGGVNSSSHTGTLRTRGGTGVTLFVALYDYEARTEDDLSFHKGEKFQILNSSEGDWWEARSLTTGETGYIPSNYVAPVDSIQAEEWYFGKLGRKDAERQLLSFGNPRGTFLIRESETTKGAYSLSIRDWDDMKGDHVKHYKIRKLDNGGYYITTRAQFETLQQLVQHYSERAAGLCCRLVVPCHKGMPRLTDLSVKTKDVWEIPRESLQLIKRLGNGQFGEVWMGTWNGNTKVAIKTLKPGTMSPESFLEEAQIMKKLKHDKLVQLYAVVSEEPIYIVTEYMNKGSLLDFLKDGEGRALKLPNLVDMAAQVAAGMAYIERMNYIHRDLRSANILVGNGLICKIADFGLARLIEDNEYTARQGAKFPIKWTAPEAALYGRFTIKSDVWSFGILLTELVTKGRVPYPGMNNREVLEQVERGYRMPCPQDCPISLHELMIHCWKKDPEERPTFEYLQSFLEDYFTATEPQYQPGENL
Chain of Ribosomal protein S6 kinase alpha-4 (Homo sapiens) (O75676 whole entry, looked up): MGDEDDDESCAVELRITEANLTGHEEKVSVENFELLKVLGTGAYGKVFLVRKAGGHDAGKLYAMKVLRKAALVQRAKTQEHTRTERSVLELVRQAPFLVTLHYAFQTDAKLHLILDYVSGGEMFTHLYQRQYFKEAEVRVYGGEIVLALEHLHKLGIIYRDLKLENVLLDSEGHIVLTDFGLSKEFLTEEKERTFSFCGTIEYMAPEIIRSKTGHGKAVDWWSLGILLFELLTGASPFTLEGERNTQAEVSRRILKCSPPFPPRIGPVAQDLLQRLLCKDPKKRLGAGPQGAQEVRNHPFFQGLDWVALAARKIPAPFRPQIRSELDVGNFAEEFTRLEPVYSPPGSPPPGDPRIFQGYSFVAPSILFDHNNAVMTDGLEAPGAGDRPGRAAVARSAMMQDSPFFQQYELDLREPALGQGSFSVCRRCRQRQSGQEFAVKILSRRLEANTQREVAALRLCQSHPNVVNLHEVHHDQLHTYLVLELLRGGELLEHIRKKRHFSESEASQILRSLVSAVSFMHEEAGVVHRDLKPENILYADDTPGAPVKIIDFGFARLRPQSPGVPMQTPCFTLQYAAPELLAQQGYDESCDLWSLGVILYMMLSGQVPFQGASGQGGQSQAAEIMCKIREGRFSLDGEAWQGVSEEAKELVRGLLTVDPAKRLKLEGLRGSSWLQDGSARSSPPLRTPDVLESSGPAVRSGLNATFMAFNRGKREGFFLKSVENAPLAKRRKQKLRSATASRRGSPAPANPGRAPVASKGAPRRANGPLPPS
Chain of 5'-AMP-activated protein kinase catalytic subunit alpha-1 (Homo sapiens) (Q13131 whole entry, looked up): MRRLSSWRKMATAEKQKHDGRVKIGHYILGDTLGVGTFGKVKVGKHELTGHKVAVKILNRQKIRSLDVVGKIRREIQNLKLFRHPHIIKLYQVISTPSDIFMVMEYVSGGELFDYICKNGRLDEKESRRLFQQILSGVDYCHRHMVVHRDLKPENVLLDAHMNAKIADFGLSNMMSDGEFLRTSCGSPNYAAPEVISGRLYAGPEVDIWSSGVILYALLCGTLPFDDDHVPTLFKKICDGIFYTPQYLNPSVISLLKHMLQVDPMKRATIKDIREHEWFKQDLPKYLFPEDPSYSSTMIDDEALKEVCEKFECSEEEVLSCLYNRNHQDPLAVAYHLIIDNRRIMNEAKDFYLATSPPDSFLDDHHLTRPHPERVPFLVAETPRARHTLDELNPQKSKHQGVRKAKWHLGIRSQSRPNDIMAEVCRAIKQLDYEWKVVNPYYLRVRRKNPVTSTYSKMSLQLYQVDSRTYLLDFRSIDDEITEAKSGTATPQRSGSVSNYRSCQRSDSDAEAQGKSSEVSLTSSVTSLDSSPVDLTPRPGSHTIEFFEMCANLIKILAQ
Chain of Rho-associated protein kinase 1 (Homo sapiens) (Q13464 2-1354 limits assumed): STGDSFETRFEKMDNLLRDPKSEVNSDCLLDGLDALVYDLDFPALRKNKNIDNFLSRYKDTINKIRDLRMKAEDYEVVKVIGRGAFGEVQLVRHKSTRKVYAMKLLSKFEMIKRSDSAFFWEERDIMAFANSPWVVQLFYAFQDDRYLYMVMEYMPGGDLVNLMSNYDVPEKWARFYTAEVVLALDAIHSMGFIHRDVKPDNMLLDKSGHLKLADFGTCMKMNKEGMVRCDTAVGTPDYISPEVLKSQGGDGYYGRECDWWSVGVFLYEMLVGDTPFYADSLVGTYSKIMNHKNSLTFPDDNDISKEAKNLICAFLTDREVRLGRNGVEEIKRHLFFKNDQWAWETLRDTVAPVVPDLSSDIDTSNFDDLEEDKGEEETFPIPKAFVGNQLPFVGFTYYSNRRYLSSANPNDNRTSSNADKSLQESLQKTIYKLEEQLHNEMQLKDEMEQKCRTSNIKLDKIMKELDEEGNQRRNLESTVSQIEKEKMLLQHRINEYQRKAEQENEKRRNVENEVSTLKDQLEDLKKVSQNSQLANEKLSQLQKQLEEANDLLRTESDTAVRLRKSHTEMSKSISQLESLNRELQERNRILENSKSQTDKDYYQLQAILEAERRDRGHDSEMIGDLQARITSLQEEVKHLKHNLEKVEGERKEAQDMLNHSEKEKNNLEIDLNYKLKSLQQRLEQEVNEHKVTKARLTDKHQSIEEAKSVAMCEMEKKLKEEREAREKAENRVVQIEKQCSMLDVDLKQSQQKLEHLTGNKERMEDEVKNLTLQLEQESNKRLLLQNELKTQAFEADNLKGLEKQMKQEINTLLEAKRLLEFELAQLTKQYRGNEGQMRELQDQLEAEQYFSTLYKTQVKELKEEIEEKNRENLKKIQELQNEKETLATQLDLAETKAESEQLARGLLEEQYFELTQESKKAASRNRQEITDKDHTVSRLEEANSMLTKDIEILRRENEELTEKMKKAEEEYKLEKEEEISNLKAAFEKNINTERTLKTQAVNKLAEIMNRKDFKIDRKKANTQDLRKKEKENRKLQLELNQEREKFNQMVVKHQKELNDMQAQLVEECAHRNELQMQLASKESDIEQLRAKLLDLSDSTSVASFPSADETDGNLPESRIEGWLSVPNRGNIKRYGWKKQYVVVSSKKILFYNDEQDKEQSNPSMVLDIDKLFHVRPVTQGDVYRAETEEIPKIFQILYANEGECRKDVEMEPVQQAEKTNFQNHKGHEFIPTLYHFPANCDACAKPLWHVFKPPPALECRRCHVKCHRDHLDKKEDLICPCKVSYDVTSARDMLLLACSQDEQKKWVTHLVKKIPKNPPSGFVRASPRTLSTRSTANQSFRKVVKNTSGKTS

Take `COc1ccc([C@@H](Cc2nnn[nH]2)NC(=O)c2ncnc3[nH]ccc23)cc1`: the Activity in [1] stood at 98%; in test [2] it was 101%; in [3], 108%; in test [4], 97%; in test [5], 91%; in test [6], 95%. The Activity in test [7] worked out at 96%; in test [8] it was 105%; in test [9] it was 105%; in [10], 102%; in [11] it was 92%; in test [12], 95%. Further, the Activity was 81% in test [13]; 102% in test [14]; 94% in [15]; 93% in [16]; 89% in test [17]; 101% in test [18].

As to `CC(C)[C@@H](Nc1ncnc2[nH]c(C(=O)N[C@@H]3CCN(C)C3)cc12)c1ccc2c(c1)S(=O)(=O)CCC2`, the Activity in test [1] was 100%; in test [2] it was 107%; in test [3] it was 103%; in test [4], 117%; in test [5] it was 101%; in test [6], 100%. The Activity in [7] was 89%; in test [8], 107%; in test [9] it was 93%; in test [10], 106%; in [11], 93%; in test [12], 103%. The Activity is 104% in test [13]; 83% in [14]; 88% in test [15]; 98% in test [16]; 97% in test [17]; 104% in [18].

Take `Cn1ncc(-c2cc3c(N[C@@H](c4ccc5c(n4)OCCO5)C(C)(C)C)ncnc3[nH]2)c1C#N`: the Activity was 81% in [1]; 109% in test [2]; 97% in test [3]; 114% in [4]; 108% in test [5]; 94% in test [6]. The Activity turned out to be 124% in test [7]; 82% in test [8]; 98% in test [9]; 140% in test [10]; 122% in [11]; 105% in [12]. In addition, the Activity in [13] was 108%; in test [14] it was 100%; in test [15], 103%; in test [16], 129%; in test [17], 88%; in test [18], 75%.

Regarding `COc1ccc([C@H](Cc2nnn[nH]2)NC(=O)c2ncnc3[nH]ccc23)cc1`, the Activity was found to be 102% in [1]; 97% in [2]; 98% in test [3]; 113% in [4]; 107% in [5]; 94% in test [6]. Moreover, the Activity in test [7] came to 96%; in test [8] it was 102%; in test [9], 90%; in [10], 116%; in test [11] it was 103%; in test [12], 97%. Further, the Activity in [13] stood at 113%; in test [14], 103%; in [15], 97%; in [16], 103%; in test [17], 88%; in [18], 99%.

As to `CNCc1cc(-c2cc3c(N[C@@H](c4ccc5c(c4)S(=O)(=O)CCC5)C(C)C)ncnc3[nH]2)co1`, the Activity in test [1] is 51%; in [2], 86%; in [3], 97%; in test [4], 98%; in test [5] it was 100%; in test [6] it was 99%. Besides, the Activity in test [7] was 82%; in [8], 64%; in test [9] it was 92%; in test [10], 114%; in test [11] it was 91%; in [12], 105%. For the same compound, the Activity in test [13] came to 110%; in test [14], 89%; in test [15] it was 96%; in test [16] it was 102%; in test [17], 96%; in [18], 99%.
